ChEMBL document CHEMBL1131242, “6beta-Acetoxynortropane: a potent muscarinic agonist with apparent selectivity toward M2-receptors” (J Med Chem, 1998)

Columns and labels:
[1] = target: Muscarinic acetylcholine receptor M1 (Homo sapiens) (UniProt P11229); test: Inhibition of binding of [3H]quinuclidinyl benzilate to human Muscarinic acetylcholine receptor M1 in membranes of transfected CHO cells at 300 uM concentration; conditions: Membrane
[2] = target: Muscarinic acetylcholine receptor M3 (Homo sapiens, UniProt P20309); test: Inhibition of binding of [3H]quinuclidinyl benzilate to human Muscarinic acetylcholine receptor M3 in membranes of transfected CHO cells at 100 uM concentration; conditions: Membrane
Muscarinic acetylcholine receptor M3, sequence (P20309 whole entry, looked up): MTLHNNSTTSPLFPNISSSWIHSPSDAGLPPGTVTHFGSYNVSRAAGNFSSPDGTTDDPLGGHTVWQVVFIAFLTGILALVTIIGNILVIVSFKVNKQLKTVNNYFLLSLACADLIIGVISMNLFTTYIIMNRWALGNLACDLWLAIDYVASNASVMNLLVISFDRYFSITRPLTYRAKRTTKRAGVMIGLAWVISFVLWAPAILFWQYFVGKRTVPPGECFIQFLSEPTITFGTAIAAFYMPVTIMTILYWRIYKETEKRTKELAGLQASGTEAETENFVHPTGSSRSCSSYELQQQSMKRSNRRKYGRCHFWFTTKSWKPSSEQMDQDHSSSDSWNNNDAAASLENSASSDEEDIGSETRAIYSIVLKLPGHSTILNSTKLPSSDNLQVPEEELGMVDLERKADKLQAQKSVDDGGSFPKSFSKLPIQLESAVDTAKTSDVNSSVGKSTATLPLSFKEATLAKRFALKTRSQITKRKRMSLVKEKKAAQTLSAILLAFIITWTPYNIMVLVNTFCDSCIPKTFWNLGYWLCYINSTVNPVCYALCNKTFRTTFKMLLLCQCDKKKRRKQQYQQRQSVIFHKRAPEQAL

Muscarinic acetylcholine receptor M1 (Homo sapiens), sequence (P11229 whole entry, looked up): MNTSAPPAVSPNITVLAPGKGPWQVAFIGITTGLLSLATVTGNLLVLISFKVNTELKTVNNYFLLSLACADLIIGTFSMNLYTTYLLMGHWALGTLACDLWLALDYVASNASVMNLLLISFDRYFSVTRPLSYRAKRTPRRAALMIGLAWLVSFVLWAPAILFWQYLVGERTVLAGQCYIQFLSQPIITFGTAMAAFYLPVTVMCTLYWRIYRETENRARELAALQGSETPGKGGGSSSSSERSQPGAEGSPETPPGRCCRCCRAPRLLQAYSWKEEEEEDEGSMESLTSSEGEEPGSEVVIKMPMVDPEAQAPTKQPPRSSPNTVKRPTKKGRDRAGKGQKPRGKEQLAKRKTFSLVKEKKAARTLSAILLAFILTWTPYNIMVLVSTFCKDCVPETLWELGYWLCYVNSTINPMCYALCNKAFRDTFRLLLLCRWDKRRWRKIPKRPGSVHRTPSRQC

CC(=O)OC(C)C[N+](C)(C)C (configuration not stated) [METHACHOLINE]
inhibition [1]: 8% | inhibition [2]: 34%
